Data on 4 molecules can be found in patent publication US11499978B2, “Method for measuring quality of therapeutic cell through real-time glutathione measurement” (CELL2IN, INC., priority 2017, dated 2022).

The structures appear in SMILES notation.

For one assay, the system named is T cells. Briefly: Anti-inflammatory effect of treated hUC-MSCs on T cells. The class given is cell-based. As to conditions: for anti-inflammatory effect of the hUC-MSCs: ferrostatin-1 1 μM 24 h, GGC 0.2 mM 2 h, FIGS. 27, 28A to 28C; for T cell differentiation capacity / T cell proliferation ability / Treg cell differentiation: hUC-MSCs treated with 1 μM ferrostatin-1 24 h, 0.2 mM GGC 2 h, 2 mM GSH-EE 2 h. As to the method:
The inventors observed an effect of the material on stem cells by treating each stem cells with a material for enhancing a glutathione evaluation parameter. When hUC-MSCs were subcultured in a L-AA2G-containing medium, CFU-F, migration capacity, and an anti-inflammatory effect were observed. A CFU-F assay (n=3) was performed by treating hUC-MSCs with 125 or 250 μg/mL of AA2G for three days. As shown in FIGS. 16A and 16B, it was confirmed that, when AA2G was treated, CFU-F increased. In addition, as hUC-MSCs were treated with 125 or 250 μg/mL of AA2G for three days, PDGF-AA-induced migration capacity (n=3) was analyzed. As shown in FIGS. 17A and 17B, it was confirmed that the migration capacity was increased by AA2G treatment. In addition, the reduction in T cell proliferation, the reduction in T cell differentiation, and the promotion of Treg cell differentiation were observed by treating hUC-MSCs with 125 or 250 μg/mL of AA2G for three days.
In addition, hUC-MSCs were cultured with ferrostatin-1 (0.2, 1, 2 and 4 μM) and liproxstatin-1 (0.1, 0.5, 1 and 2 μM), which control a glutathione level in cells by inhibiting lipid oxidation. […] Meanwhile, the hUC-MSCs were treated with 1 μM ferrostatin-1 for 24 hours, 0.2 mM GGC for 2 hours, and 2 mM GSH-EE for 2 hours. As a result, the reduction in T cell proliferation ability and the reduction in T cell differentiation capacity were observed, and promotion of Treg cell differentiation was observed.

The test system of assay [1] is hUC-MSCs. The experiment in a line: CFU-F assay of hUC-MSCs. In kind it is cell-based, human. As to conditions: n=3. The method, then: (§1) The inventors observed an effect of the material on stem cells by treating each stem cells with a material for enhancing a glutathione evaluation parameter. When hUC-MSCs were subcultured in a L-AA2G-containing medium, CFU-F, migration capacity, and an anti-inflammatory effect were observed. A CFU-F assay (n=3) was performed by treating hUC-MSCs with 125 or 250 μg/mL of AA2G for three days. As shown in FIGS. 16A and 16B, it was confirmed that, when AA2G was treated, CFU-F increased. In addition, as hUC-MSCs were treated with 125 or 250 μg/mL of AA2G for three days, PDGF-AA-induced migration capacity (n=3) was analyzed. As shown in FIGS. 17A and 17B, it was confirmed that the migration capacity was increased by AA2G treatment. In addition, the reduction in T cell proliferation, the reduction in T cell differentiation, and the promotion of Treg cell differentiation were observed by treating hUC-MSCs with 125 or 250 μg/mL of AA2G for three days. […] Meanwhile, hUC-MSCs were cultured with a glutathione precursor such as γ-glutamyl cysteine (GGC, 0.1, 0.25, and 0.5 mM). A CFU-F assay (n=3) was performed by treating hUC-MSCs with each concentration of GGC for 2 hours. […] In addition, SDF1α and PDGF-AA-induced migration capacities (n=3) were analyzed for hUC-MSCs without treatment with GGC, and SDF1α and PDGF-AA-induced migration abilities (n=3) were analyzed by treating hUC-MSCs with the increasing concentrations of GGC. STI571 was used as a PDGFR kinase inhibitor. As shown in FIGS. 20A to 20C, it was confirmed that, according to an increase in GGC treatment concentration, SDF1α- and PDGF-AA-induced migration capacities were enhanced. A CFU-F assay (n=3) was performed by treating hUC-MSCs with 0.2, 1, 2, and 4 μM ferrostatin-1 and 0.1, 0.5, 1, and 2 μM liproxstatin-1 for 24 hours.

Assay [2] relates to hUC-MSCs. The experiment in a line: SDF1α- and PDGF-AA-induced migration capacity of hUC-MSCs. The class given is cell-based, human. Particulars: increasing GGC treatment concentration (0.1, 0.25 mM), n=3. As to the method:
as §1, with “mM).” for “mM). A CFU-F assay (n=3) was performed by treating hUC-MSCs with each concentration of GGC for 2 hours.”, “STI571 was used as a PDGFR kinase inhibitor. As shown in FIGS. 20A to 20C, it was confirmed that, according to an increase in GGC treatment concentration, SDF1α- and PDGF-AA-induced migration capacities were enhanced. A CFU-F assay (n=3) was performed by treating hUC-MSCs with 0.2, 1, 2, and 4 μM ferrostatin-1 and 0.1, 0.5, 1, and 2 μM liproxstatin-1 for 24 hours.” left out

The next assay has as its system hES-MSCs. Briefly: CFU-F assay of FreSH-Tracer-sorted hES-MSCs. In kind it is cell-based, human. As to the method:
Main factors for determining the therapeutic efficacy of hBM-MSCs, namely a colony forming unit-fibroblast (CFU-F) and a graft survival rate, were evaluated in cell culture models.
In order to test whether direct control of a GSH level in stem cells leads to change in cell functions, hES-MSCs sorted by FreSH-Tracer were treated with buthionine sulfoximine (BSO; glutathione synthesis inhibitor) and glutathione ethyl ester (GSH-EE). When GSH was decreased in cells by treating GSH^High cells with BSO (80 μM, 24 h), it was confirmed that CFU-F increased, and on the other hand, when GSH was increased by treating GSH^Low cells with GSH-EE (1 mM, 2 h), it was confirmed that CFU-F decreased (FIG. 13A). In addition, it was confirmed that, when hES-MSCs which were not sorted by FreSH-Tracer were treated with BSO or GSH-EE, PDGF-AA-induced cell migration capacity was decreased or increased, respectively (FIG. 13B).

For assay [3], the system named is hUC-MSCs. Briefly: Oxidative stress resistance capacity (ORC) analysis in hUC-MSCs with RSL3. The class given is cell-based, human. As to conditions: hUC-MSCs; liproxstatin-1 0, 2.5, 5 or 10 μM; RSL3 0, 0.5 or 1 μM; the higher the concentration. As to the method:
GRC refers to a value obtained by real-time monitoring of FR after living cells are treated with an oxidizing agent, as calculated by dividing a value obtained by subtracting AUC of a group treated with 0.1-100 mM N-ethylmaleimide (NEM) from FR AUC of an oxidizing agent (diamide, H2O2, etc.)-treated group by a value obtained by subtracting the AUC of NEM-treated group from AUC of the untreated control, and multiplying the resulting value by 100. The FR of the NEM-treated group is a value for increasing the sensitivity of a GRC value by treating it as the blank value of the FR of the cells of interest. […] To remove the MitoFreSH-Tracer from the medium before measurement, the medium was exchanged with fresh 10 mM HEPES-containing HBSS(Hanks' Balanced Salt Solution), and a fluorescence image was obtained using a confocal imaging system, Operetta. By comparing GSH levels quantified from control cells not treated with RSL3 or control cells before treated with RSL3, the distribution of GSH expression-changed cells was calculated. Based on the point where the distribution histogram is divided into two peaks, the cells were divided into GSH^High cells (right peak) and GSH^Low cells (left peak), and then a ratio of corresponding cells was expressed as a percentage (%). […]

With `N[C@@H](CCC(=O)N[C@@H](CS)C(=O)O)C(=O)O` [GGC, γ-glutamyl cysteine], in the assay with T cells, the “anti-inflammatory effect of the hUC-MSCs” value is “no change”, the “T cell differentiation capacity” value is given as “reduction”, the “T cell proliferation ability” value is “reduction” and the Treg cell differentiation result was “promotion”. For the same molecule, the CFU-F result with hUC-MSCs [1] (GGC 0.1, 0.25 and 0.5 mM for 2 hours) is “increased”. Further, the “SDF1α- and PDGF-AA-induced migration capacities” value with hUC-MSCs [2] is “enhanced”.
As for `CCCCS(=N)(=O)CCC(N)C(=O)O` (centres unmarked) [BSO, buthionine sulfoximine], the CFU-F entry with hES-MSCs (GSH^High hES-MSCs treated with BSO 80 μM, 24 h) is reported as “increased”.
Regarding `Clc1cccc(CN=C2Nc3ccccc3NC23CCNCC3)c1` [liproxstatin-1], in the assay on T cells, the “anti-inflammatory effect of the hUC-MSCs” value is “did not alter”. Moreover, in the assay with hUC-MSCs [3], the “ORC: ratio of the GSH^High cells” value is “increased”. Also, in the assay with hUC-MSCs [1] (ferrostatin-1 0.2, 1, 2 and 4 μM, liproxstatin-1 0.1, 0.5, 1 and 2 μM, 24 hours), the CFU-F result is “improved”.
On to `CCOC(=O)CNC(=O)[C@H](CS)NC(=O)CC[C@H](N)C(=O)O` [GSH-EE, glutathione ethyl ester], for which, in the assay with T cells, the “T cell differentiation capacity” value was “reduction”, the “T cell proliferation ability” value is on record as “reduction” and the Treg cell differentiation entry was “promotion”. For the same molecule, the CFU-F entry with hES-MSCs (GSH^Low hES-MSCs treated with GSH-EE 1 mM, 2 h) is reported as “decreased”.
